System: honeyeater HK3 (hexokinase 3)
Assay: hexokinase activity assay kit
Type: biochemical, Phylidonyris novaehollandiae
Settings: 25 °C; 200 nM enzyme; glucose 0.009375-1 mM; substrate inhibition

OC[C@H]1OC(O)[C@H](O)[C@@H](O)[C@@H]1O (stereo partly shown) [glucose]
Km: 65.9 µM

Source: paper doi:10.1101/2024.08.30.610474v2 (biorxiv, 2025)
